Values quoted from earlier work, collected in patent US7112576B1, “Compositions and methods for cryopreservation of peripheral blood lymphocytes” (Regents of the University of Minnesota, priority 1999, dated 2006).

Tested on: patients who received cryopreserved autologous cell grafts
Conditions: attributed to the infusion of DMSO

patients exhibiting dyspnea: 83% | patients exhibiting transient hypertension: 96%
SMILES: C[S+](C)[O-] [DMSO, dimethylsulfoxide]
patients exhibiting decreased heart rates: 98%
